Legend:
[1] = system: Normal T lymphocytes in BM samples; experiment: PharmaFlow test, normal T lymphocytes in AML patient BM samples; type: cell-based, human; settings: BM samples of AML patients; for Compound 1 all but 1 patient
[2] = system: leukemic cells from TP53 WT AML patients; experiment: PharmaFlow test (Vivia), cytotoxic effect on leukemic cells in AML patient BM samples; type: cell-based, human; settings: AML patient samples
[3] = system: human peripheral blood (PB) lymphocytes; experiment: In vitro mammalian cell micronucleus test; settings: 4 hours with and without S9, 24 hours without S9; compared with negative controls
Procedure: Compound 1 was tested in the in vitro mammalian cell micronucleus test in human peripheral blood (PB) lymphocytes in the presence and absence of a metabolic activation system, Aroclor-induced rat liver fraction (S9), for 4 hours, and in the absence of S9 for 24 hours. The highest concentration tested was 481 μg/mL. Dimethyl sulfoxide (DMSO) was used as the solvent. […] In addition, 2 lower concentrations with appropriate concentration and cytotoxicity spacing were chosen for micronucleus scoring in each regime.

| SMILES | cytotoxicity in T lymphocytes [1] | cytotoxicity in leukemic cells [2] | proportion of micronucleated binucleate cells (MBC) [3] |
| --- | --- | --- | --- |
| COc1cc(C(=O)O)ccc1NC(=O)[C@@H]1N[C@@H](CC(C)(C)C)[C@](C#N)(c2ccc(Cl)cc2F)[C@H]1c1cccc(Cl)c1F [RG7388, idasanutlin, reference compound] | pan-cytotoxicity | pan-cytotoxicity | – |
| O=P1(N(CCCl)CCCl)NCCCO1 (stereo not shown) [cyclophosphamide monohydrate, reference compound] | – | – | statistically significant increases |
| COC(=O)Nc1nc2ccc(C(=O)c3cccs3)cc2[nH]1 [nocodazole, reference compound] | – | – | statistically significant increases |

— patent publication US20220387405A1, “METHODS OF TREATMENT WITH N-((R)-1-(3-CHLOROPYRIDIN-2-YL)-2,2,2-TRIFLUOROETHYL)-2-((S)-2,6-DIOXOPIPERIDIN-3-YL)-1-OXOISOINDOLINE-5-CARBOXAMIDE” (CELGENE CORPORATION, priority 2021, published 2022)
